The test system of data set [1] is GABA-T. Particulars: known compounds, literature; cited from earlier work.
The test system of data set [2] is brain levels of GABA. As to conditions: known compounds, literature; cited from earlier work.
For data set [3], the system named is GABA-T. Kind of data set: Biochemical tests for irreversible inhibition of GABA-T. As to conditions: biochemical / biological tests.
Data set [4] is described as follows: Toxicity (lethality) after i.p. or oral administration to mice. As to conditions: for No. of dead animals Day 4: Example 5 Part B. On the procedure: A. The toxicity of (S)-allenyl GABA and (R,S)-allenyl GABA was determined after i.p. administration to male mice. The mice were observed up to eight days after injection.
B. The toxicity of (S)-allenyl GABA ("S") and (R,S)-allenyl GABA ("R,S") was determined as in Part A after both oral and i.p. administration.

Data set [5] relates to GABA-T. As to the kind of experiment: GABA-T activity in mouse brain after a single i.p. or oral dose. As to conditions: for GABA-T Activity (calculated as percent inhibition): 6 h, Table 2. The class given is in vivo, mice. The protocol: Male albino CD1 mice each weighing approximately 34 g at commencement of the test are given an i.p. injection of the test compound in aqueous solution daily for seven consecutive days. Half of the animals are killed by decapitation 24 hours after the last dose fo the test compound. The other half of the animals are observed for up to 12 days for toxicity (as indicated by weight loss and deaths). Control animals receive an injecion of the vehicle only.
The brains are removed from the dead mice and are divided into two portions by sagittal section. One half is used for the measurement of GABA-T activity while the other is used for measuring GABA content. The GABA-T activity is measured using known methods as described by M. Jung et al., J.Neurochem., 28, 717 (1977) and 29, 797 (1977). GABA content is measured by perchloric acid or trichloroacetic acid extracts using an amino acid analyzer equiped with a fluorescence detector.
A. The procedure of Example 3 is repeated using a single i.p. dose of the test compound and killing the mice 6 hours after the i.p. injection.
(§1) B. The procedure of Part A is repeated using both oral and i.p. doses of (R,S)-allenyl GABA.

Data set [6] has as its system GABA levels in the brain. Kind of data set: GABA level in mouse brain after a single i.p. or oral dose. The class given is in vivo, mice. As to conditions: for GABA Level (calculated as percent of control): 6 h. On the procedure:
[…] […] The other half of the animals are observed for up to 12 days for toxicity (as indicated by weight loss and deaths). Control animals receive an injecion of the vehicle only.
The brains are removed from the dead mice and are divided into two portions by sagittal section. One half is used for the measurement of GABA-T activity while the other is used for measuring GABA content. […] GABA content is measured by perchloric acid or trichloroacetic acid extracts using an amino acid analyzer equiped with a fluorescence detector.
as §1

Structures are written as SMILES. Like-named read-outs stand apart in the source and are kept apart here.

The text below walks through data of US4454156A, “4-Amino-hepta-5,6-dienoic acid” (Merrell-Toraude et Compagnie, priority 1982, dated 1984).

Take `C#CC(N)CCCN` (stereo not shown) [1-acetylene-1,4-butanediamine]: the “irreversible inhibition of GABA-T” value in data set [1] is reported as “irreversible inhibitors of GABA-T”. For the same molecule, the “elevation of brain levels of GABA” value in data set [2] is given as “elevate brain levels of GABA”.
As for `C=CC(N)CCC(=O)O` (stereo not shown) [4-aminohex-5-enoic acid ("vinyl GABA"), 4-aminohex-5-enoic acid], the “irreversible inhibition of GABA-T” value in data set [1] is “irreversible inhibitors of GABA-T”. The “elevation of brain levels of GABA” value in data set [2] is “elevate brain levels of GABA”.
Take `C#CC(N)CCC(=O)O` (stereo not shown) [4-aminohex-5-ynoic acid]: the “irreversible inhibition of GABA-T” value in data set [1] is recorded as “irreversible inhibitors of GABA-T”. The “elevation of brain levels of GABA” value in data set [2] is recorded as “elevate brain levels of GABA”.
For the molecule `C=C=C[C@H](N)CCC(=O)O` [(R)-allenyl GABA], the “irreversible inhibition of GABA-T” value in data set [3] is given as “not an irreversible inhibitor of GABA-T”; in data set [3] (listed as (R)(-)-isomer) it was “not active”.
`C=C=C[C@@H](N)CCC(=O)O` [(S)-allenyl GABA, (S)-4-amino-hepta-5,6-dienoic acid]: the “irreversible inhibition of GABA-T” value in data set [3] is “irreversible inhibitor of GABA-T”. Also, the “No. of dead animals” value in data set [4] (i.p., 250 mg/kg, Day 1) is listed as 0/5; in data set [4] (i.p., 250 mg/kg, Day 2), 0/5; in data set [4] (i.p., 250 mg/kg, Day 3), 0/5; in data set [4] (i.p., 250 mg/kg, Day 4), 0/5; in data set [4] (i.p., 250 mg/kg, Day 8), 0/5; in data set [4] (i.p., 375 mg/kg, Day 1), 0/5. Further, the “No. of dead animals” value in data set [4] (i.p., 375 mg/kg, Day 2) is on record as 0/5; in data set [4] (i.p., 375 mg/kg, Day 3), 0/5; in data set [4] (i.p., 375 mg/kg, Day 4) it was 0/5; in data set [4] (i.p., 375 mg/kg, Day 8) it was 0/5; in data set [4] (i.p., 500 mg/kg, Day 1), 0/5; in data set [4] (i.p., 500 mg/kg, Day 2), 0/5. Moreover, the “No. of dead animals” value in data set [4] (i.p., 500 mg/kg, Day 3) was 0/5; in data set [4] (i.p., 500 mg/kg, Day 4), 0/5; in data set [4] (i.p., 500 mg/kg, Day 8), 0/5; in data set [4] (i.p., 750 mg/kg, Day 1), 0/5; in data set [4] (i.p., 750 mg/kg, Day 2) it was 0/5; in data set [4] (i.p., 750 mg/kg, Day 3), 0/5. Besides, the “No. of dead animals” value in data set [4] (i.p., 750 mg/kg, Day 4) was 0/5; in data set [4] (i.p., 750 mg/kg, Day 8) it was 0/5. For the same molecule, the “toxicity after i.p. administration” value in data set [4] (i.p., very large doses corresponding to maximal biological effects) is listed as “non-toxic after i.p. administration of very large doses”. The “toxicity by oral administration” value in data set [4] (oral) is “non-toxic by oral administration”. The “No. of dead animals Day 4” value in data set [4] (oral, 500 mg/kg, Day 4) is given as 0/5; in data set [4] (oral, 750 mg/kg, Day 4), 1/5. For the same molecule, the “irreversible inhibition of GABA-T in vivo” value in data set [5] (in vivo) is “produce irreversible inhibition of GABA-T”. The results for the “GABA-T Activity (calculated as percent inhibition)” value in data set [5] (single i.p. dose 0.77 mM/kg (135.9 mg/kg)), in data set [5] (single i.p. dose 1.55 mM/kg (273.5 mg/kg)) and in data set [5] (single i.p. dose 3.10 mM/kg (547.2 mg/kg)) were 79 percent inhibition, 92 percent inhibition and 96 percent inhibition, respectively. For the same molecule, the “relative potency for the elevation of GABA levels” value in data set [6] ((S) versus (R,S), single i.p. dose, Table 2) is given as “twice the potency of (R,S)-allenyl GABA”. The “elevation of GABA levels in the CNS” value in data set [6] (administered orally or parenterally) is on record as “can elevate GABA levels significantly in the CNS”. For the same molecule, the “effectiveness by oral versus i.p. route” value in data set [6] (oral vs i.p., Table 3) was “equally effective when given by the oral and i.p. routes of administration”. Moreover, the “GABA Level (calculated as percent of control)” value in data set [6] (single i.p. dose 0.77 mM/kg (135.9 mg/kg), Table 2) is listed as 540% of control; in data set [6] (single i.p. dose 1.55 mM/kg (273.5 mg/kg), Table 2) it was 670% of control; in data set [6] (single i.p. dose 3.10 mM/kg (547.2 mg/kg), Table 2), 730% of control.
